Measured values published in PMC11233931, “Remodeling tumor‐associated macrophage for anti‐cancer effects by rational design of irreversible inhibition of mitogen‐activated protein kinase‐activated protein kinase 2” (MedComm, 2024).
Read-outs that look alike come from different tables or passages of the source.

What was measured:
Assay in all cases: Eurofins kinase selectivity profile against 380 other human recombinant kinases (Table S2)
Format in all cases: biochemical
[1] = target: T1, 380 human recombinant protein kinases (Homo sapiens, UniProt P29322); details: EphA8(h), read-out: Inhibition rate
T1 construct: purchased Eurofins (Celle Lévescault)
T1 sequence (P29322 28-1005): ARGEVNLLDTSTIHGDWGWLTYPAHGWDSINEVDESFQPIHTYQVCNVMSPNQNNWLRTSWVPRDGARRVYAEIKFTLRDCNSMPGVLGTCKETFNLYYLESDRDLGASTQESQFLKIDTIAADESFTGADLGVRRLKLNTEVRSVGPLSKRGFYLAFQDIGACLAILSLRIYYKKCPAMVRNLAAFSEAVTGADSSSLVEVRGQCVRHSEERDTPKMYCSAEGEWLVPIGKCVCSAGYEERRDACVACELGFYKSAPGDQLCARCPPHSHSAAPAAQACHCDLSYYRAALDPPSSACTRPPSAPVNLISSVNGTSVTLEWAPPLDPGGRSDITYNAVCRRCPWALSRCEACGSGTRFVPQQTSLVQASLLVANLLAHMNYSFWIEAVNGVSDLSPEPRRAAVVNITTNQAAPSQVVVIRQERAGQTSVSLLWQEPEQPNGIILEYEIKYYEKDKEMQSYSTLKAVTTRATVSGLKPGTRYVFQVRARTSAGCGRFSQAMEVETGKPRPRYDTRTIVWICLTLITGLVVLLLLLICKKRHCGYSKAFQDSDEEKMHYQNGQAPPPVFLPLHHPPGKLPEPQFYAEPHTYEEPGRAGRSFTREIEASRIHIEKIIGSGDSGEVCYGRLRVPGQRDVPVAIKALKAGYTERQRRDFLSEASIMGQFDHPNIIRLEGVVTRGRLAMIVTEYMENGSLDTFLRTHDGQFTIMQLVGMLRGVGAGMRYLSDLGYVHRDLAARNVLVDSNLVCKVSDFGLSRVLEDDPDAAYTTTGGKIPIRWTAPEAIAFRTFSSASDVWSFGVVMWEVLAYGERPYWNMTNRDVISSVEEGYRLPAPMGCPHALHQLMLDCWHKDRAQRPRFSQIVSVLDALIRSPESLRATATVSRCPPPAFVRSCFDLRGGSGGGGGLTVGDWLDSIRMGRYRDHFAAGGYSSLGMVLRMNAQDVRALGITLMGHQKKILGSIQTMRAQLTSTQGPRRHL
Procedure, shortened: (§1)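 The inhibitor was sent to a contract lab and screened at various concentrations against 380 human recombinant protein kinases. This served as a counter-screen for MK2 specificity.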

[2] = target: T2, 380 human recombinant protein kinases (Homo sapiens, UniProt P42336); details: read-out: Inhibition rate (%); for inhibition at 0.01 µM: 10 nM; for inhibition at 0.1 µM: 100 nM; for inhibition at 1 µM: 1000 nM
T2 construct: purchased Eurofins (Celle Lévescault)
Procedure, shortened: as §1

[3] = target: T3, 380 human recombinant protein kinases (Homo sapiens, UniProt P0C1S8); details: Wee1B(h), read-out: Inhibition rate (%)
T3 construct: purchased Eurofins (Celle Lévescault)
Procedure, shortened: as §1

[4] = target: T4, 380 human recombinant protein kinases (Homo sapiens, UniProt O15146); details: MuSK(h), read-out: Inhibition rate
T4 construct: purchased Eurofins (Celle Lévescault)
T4 sequence (O15146 24-869): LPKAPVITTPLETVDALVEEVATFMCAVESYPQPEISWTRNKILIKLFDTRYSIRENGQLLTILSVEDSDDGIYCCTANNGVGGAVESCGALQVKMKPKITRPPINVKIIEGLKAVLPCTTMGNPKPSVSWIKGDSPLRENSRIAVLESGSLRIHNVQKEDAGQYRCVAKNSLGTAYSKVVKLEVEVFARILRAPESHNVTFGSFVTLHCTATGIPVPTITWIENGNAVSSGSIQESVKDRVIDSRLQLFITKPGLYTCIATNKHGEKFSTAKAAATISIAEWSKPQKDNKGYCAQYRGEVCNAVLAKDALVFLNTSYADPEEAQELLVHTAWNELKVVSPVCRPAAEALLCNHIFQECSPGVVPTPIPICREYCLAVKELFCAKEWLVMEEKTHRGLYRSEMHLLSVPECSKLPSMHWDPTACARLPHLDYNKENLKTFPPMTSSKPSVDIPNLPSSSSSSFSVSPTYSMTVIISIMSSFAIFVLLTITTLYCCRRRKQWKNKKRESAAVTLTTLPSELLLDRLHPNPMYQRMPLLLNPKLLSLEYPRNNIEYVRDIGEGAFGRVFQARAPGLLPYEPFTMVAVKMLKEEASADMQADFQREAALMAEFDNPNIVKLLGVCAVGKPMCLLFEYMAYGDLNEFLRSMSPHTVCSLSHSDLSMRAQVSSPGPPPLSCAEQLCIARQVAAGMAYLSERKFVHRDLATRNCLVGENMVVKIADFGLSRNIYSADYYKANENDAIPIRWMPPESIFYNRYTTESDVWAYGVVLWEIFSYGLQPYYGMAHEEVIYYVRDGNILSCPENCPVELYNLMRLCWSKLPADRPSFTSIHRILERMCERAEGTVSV
Procedure, shortened: as §1

[5] = target: T5, 380 human recombinant protein kinases (Homo sapiens, UniProt Q86Z02); details: HIPK1(h), read-out: Inhibition rate
T5 construct: purchased Eurofins (Celle Lévescault)
Procedure, shortened: as §1

T5 sequence (Q86Z02 whole entry): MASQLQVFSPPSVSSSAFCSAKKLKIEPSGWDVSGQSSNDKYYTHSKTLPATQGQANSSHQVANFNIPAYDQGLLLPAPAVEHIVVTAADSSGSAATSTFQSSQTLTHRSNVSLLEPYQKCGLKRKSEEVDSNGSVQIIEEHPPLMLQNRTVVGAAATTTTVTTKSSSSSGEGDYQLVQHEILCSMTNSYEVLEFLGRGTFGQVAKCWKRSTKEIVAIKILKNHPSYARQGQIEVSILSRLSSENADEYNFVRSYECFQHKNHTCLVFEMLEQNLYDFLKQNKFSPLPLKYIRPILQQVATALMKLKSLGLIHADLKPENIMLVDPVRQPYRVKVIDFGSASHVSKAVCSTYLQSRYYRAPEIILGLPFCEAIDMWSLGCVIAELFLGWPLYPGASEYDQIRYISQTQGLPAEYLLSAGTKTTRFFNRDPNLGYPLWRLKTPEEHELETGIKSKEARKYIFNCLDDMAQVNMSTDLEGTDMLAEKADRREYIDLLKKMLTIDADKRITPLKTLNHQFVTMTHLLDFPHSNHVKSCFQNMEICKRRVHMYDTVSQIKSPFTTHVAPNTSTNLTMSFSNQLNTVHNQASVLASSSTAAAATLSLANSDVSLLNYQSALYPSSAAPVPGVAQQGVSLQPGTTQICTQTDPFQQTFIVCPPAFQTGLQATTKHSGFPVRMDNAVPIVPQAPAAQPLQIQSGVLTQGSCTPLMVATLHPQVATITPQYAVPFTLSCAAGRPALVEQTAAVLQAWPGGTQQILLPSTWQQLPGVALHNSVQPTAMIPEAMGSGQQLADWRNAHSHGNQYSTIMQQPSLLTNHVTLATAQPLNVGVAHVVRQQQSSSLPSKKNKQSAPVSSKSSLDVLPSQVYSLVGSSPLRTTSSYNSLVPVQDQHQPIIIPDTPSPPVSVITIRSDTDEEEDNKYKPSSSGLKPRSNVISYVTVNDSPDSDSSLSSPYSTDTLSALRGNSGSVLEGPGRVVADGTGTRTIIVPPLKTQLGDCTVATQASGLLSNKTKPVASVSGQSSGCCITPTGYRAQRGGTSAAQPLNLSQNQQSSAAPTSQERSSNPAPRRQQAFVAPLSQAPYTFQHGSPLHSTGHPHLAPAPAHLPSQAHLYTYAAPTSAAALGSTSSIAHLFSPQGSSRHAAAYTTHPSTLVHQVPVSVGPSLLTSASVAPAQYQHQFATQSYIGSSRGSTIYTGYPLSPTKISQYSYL
T2 sequence (P42336 whole entry): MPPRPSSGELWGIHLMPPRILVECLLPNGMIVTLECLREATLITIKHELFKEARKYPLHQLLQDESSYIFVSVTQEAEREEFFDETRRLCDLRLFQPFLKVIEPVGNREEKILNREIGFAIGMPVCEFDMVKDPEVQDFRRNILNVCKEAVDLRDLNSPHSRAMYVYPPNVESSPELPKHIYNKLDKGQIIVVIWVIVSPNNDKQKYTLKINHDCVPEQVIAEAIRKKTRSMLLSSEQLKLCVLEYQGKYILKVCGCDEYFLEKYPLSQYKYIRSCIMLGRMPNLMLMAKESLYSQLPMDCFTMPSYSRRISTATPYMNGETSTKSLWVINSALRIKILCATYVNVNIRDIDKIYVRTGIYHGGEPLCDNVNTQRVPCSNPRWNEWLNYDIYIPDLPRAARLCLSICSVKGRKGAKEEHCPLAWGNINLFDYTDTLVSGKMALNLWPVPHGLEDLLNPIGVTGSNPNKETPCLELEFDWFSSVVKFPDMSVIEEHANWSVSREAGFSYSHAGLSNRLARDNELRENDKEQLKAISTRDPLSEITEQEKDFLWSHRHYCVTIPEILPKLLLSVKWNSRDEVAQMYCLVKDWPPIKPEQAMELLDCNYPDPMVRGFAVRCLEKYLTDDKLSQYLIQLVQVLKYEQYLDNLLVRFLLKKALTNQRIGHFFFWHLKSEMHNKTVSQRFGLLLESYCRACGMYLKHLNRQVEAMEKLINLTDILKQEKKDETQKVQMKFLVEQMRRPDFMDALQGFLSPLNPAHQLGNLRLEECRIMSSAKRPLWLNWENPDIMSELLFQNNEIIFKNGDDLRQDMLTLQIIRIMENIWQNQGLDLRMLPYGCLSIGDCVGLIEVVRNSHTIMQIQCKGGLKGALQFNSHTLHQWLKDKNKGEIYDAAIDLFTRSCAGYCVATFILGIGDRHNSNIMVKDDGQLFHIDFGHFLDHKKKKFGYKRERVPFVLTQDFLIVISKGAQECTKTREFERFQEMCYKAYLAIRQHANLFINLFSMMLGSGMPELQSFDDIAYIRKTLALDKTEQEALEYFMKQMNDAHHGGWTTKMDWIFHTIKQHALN
T3 sequence (P0C1S8 whole entry): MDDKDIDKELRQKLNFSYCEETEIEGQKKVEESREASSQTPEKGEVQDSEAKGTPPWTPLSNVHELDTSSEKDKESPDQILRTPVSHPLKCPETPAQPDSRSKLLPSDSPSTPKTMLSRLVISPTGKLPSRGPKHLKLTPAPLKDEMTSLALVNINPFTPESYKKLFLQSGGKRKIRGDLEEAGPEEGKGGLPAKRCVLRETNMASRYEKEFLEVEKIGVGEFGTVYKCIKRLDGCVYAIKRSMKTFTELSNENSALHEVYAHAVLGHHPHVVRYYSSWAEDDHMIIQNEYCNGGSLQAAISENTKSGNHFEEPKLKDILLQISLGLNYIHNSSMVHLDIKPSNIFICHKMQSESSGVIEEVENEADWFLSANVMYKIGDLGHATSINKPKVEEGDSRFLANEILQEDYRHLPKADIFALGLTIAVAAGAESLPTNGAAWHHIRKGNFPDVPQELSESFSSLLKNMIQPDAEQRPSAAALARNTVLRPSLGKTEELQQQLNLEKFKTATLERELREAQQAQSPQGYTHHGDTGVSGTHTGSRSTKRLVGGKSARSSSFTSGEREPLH

C=CC(=O)Nc1cc(-c2cc(-c3cc4c([nH]3)CCNC4=O)ccn2)ccc1OC(F)(F)F [compound 11]
inhibition at 0.01 µM ([1]; 10 nM): 1%
inhibition at 0.1 µM ([1]; 100 nM): 2%
inhibition at 1 µM ([1]; 1000 nM): 1%
inhibition at 0.01 µM ([2]; PI3 Kinase (p110α/p65α)(h)): 3%
inhibition at 0.1 µM ([2]; PI3 Kinase (p110α/p65α)(h)): 0%
inhibition at 1 µM ([2]; PI3 Kinase (p110α/p65α)(h)): 1%
inhibition at 0.01 µM ([2]; PI3 Kinase (p110α/p85α)(h)): -1%
inhibition at 0.1 µM ([2]; PI3 Kinase (p110α/p85α)(h)): 0%
inhibition at 1 µM ([2]; PI3 Kinase (p110α/p85α)(h)): -1%
inhibition at 0.01 µM ([3]; 10 nM): -2%
inhibition at 0.1 µM ([3]; 100 nM): -4%
inhibition at 1 µM ([3]; 1000 nM): 3%
inhibition at 0.01 µM ([4]; 10 nM): 7%
inhibition at 0.1 µM ([4]; 100 nM): 7%
inhibition at 1 µM ([4]; 1000 nM): 7%
inhibition at 0.01 µM ([5]; 10 nM): -21%
inhibition at 0.1 µM ([5]; 100 nM): -9%
inhibition at 1 µM ([5]; 1000 nM): -3%
